Measured values taken from patent US20030040436A1 (priority 2000, published 2003).

Key:
[1] = system: moss; assay: Control of moss on greenhouse wall and ground; details: 5% (w/v), sprayed to run-off, one application, within 24 hours
[2] = system: Phormidium algae; assay: Field test, spray application: control of algae on turfgrass; format: in vivo; details: single spray application, several days following
Text: (§1) Each of the three concentrations and negative controls without benzyl benzoate were applied to one square foot of SRI 020 bentgrass or Tiffway hybrid bermudagrass, which was naturally infected with Phormidiumalgae, with a single spray application. The turfgrass was examined empirically for control of the algae as well and toxicity to the grass.

[3] = system: Tiffway hybrid bermudagrass and SR1020 bentgrass; assay: Phytotoxic field testing on grass test surfaces; format: in vivo; details: highest concentration (0.8% w/v), one square foot test surfaces
Text: This formulation was applied to two grass species, Tiffway hybrid bermudagrass and SR1020 bentgrass. One square foot test surfaces of each grass type were used. The test formulation was applied to test surfaces in dilutions corresponding to 0.8, 0.3, and 0.1% (w/v) benzyl benzoate.

[4] = system: SRI 020 bentgrass or Tiffway hybrid bermudagrass; assay: Field test, spray application: toxicity to the grass; format: in vivo, SRI 020 bentgrass; Tiffway hybrid bermudagrass; details: all concentrations tested (0.8, 0.3, 0.1% w/v), single spray application
Text: as §1

[5] = system: Phormidium algae; assay: Well-plate assay of algicidal activity; details: for Lethality: 24 hours under fluorescent light
Experimental: Liquid cultures of Phormidiumalgae were homogenized into individual cells in a standard laboratory blender apparatus. One hundred fifty μl of the homogenized algal suspension were added to the wells of 96-well assay plates using multitip-transfer pipettes. To each well, 150 μl of various dilutions of the test formulation were added, such that final concentrations of bcnzyl benzoate in the test wells were 0.8%, 0.3%, and 0.1%. The plates were allowed to incubation under fluorescent light for 24 hours.

[6] = system: Phormidium algae; assay: Filter paper assay of algicidal activity; format: cell-based; details: for Zone of Inhibition: observed 4 days after start
Text: Briefly, the filter paper assay is designed to approximate an environment such as that found on a golf course, where algal pests can be particularly damaging. Blended fragment suspensions of Phormidium algae were passed through a coarse Whatman filter paper circle to collect the algal cells. The filter paper was then placed in a large Petri dish containing moist sand. The desired concentration of 10% benzyl benzoate formulation (0.8, 0.3 and 0.1% (w/v) final concentration) was placed on marked areas of the algae field to determine toxic effects. Observations were made 4 days after the test was initiated and were compared to control experiments using the known pesticide Daconil.

Compound | phytotoxicity to moss [1] | algae control ([2]; 0.3% (w/v)) | algae control ([2]; 0.8% (w/v)) | phytotoxicity [3] | phytotoxic effect (chemical burn) on the two grass species [4] | Comments (efficacy compared to Daconil) ([5]; 0.1% benzyl benzoate) | Lethality ([5]; 0.1% benzyl benzoate final concentration) | Comments (efficacy compared to Daconil) ([5]; 0.3% benzyl benzoate) | Lethality ([5]; 0.3% benzyl benzoate final concentration) | Comments (efficacy compared to Daconil) ([5]; 0.8% benzyl benzoate) | Lethality ([5]; 0.8% benzyl benzoate final concentration) | Zone of Inhibition ([6]; 0.1% (w/v) benzyl benzoate) | killing Phormidium ([6]; 0.3% (w/v) benzyl benzoate) | Zone of Inhibition ([6]; 0.3% (w/v) benzyl benzoate) | killing Phormidium ([6]; 0.8% (w/v) benzyl benzoate) | Zone of Inhibition ([6]; 0.8% (w/v) benzyl benzoate)
CCCCCCC(C=O)=Cc1ccccc1 [HCA, α-hexyl cinnamic aldehyde, reference compound] | phytotoxic to moss | – | – | – | – | – | – | – | – | – | – | – | – | – | – | –
O=C(OCc1ccccc1)c1ccccc1O [benzyl salicylate] | phytotoxic to moss | – | – | – | – | – | – | – | – | – | – | – | – | – | – | –
O=C(OCc1ccccc1)c1ccccc1 [benzyl benzoate] | – | significant level of control | most effective algae control | Only small signs of phytotoxicity | minimal phytotoxic effect | Same efficacy as | no | Superior to Daconil | yes | Superior to Daconil | yes | no | very effective | yes | very effective | yes
